# Experimental data: patent publication US20240325327A1, “METHOD FOR ATTENUATING NEUROINFLAMMATION, AMYLOIDOPATHY AND TAUOPATHY” (Trustees of Dartmouth College, priority 2023, published 2024)
# Tests used:
# ACAT2 [1] = biological target: T1, ACAT2 (Homo sapiens, UniProt O75908); parameters: IC50 ACAT2; settings: cited from earlier work
# T1 sequence (O75908 1-522): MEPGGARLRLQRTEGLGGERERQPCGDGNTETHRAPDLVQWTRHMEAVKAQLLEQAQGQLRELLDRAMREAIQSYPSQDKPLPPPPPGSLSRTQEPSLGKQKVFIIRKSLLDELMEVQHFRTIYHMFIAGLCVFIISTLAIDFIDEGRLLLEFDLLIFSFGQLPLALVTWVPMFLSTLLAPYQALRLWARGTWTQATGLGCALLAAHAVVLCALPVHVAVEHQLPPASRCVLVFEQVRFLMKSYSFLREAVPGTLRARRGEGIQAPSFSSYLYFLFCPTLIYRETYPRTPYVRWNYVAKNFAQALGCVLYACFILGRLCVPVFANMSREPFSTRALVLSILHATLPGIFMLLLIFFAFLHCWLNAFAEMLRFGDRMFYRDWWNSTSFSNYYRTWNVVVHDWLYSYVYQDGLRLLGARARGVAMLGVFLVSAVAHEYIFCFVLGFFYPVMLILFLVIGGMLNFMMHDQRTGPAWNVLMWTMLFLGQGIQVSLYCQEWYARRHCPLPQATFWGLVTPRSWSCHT
# [2] = system: mouse model for Alzheimer's Disease; settings: in vivo; cited from earlier work
# ACAT2 [3] = biological target: T1, ACAT2; settings: at 1 mM; cited from earlier work
# ACAT1 = ACAT1 inhibition, literature values; assay type: biochemical, human; settings: ratio of IC50 values ACAT2/ACAT1
# From the text: Cholesterol is stored as cholesteryl esters. For cholesterol esterification, there are two Acyl-CoA:Cholesterol Acyltransferase (ACAT) genes, SOAT1 and SOAT2, encoding two homologous but distinct enzymes, ACAT1 and ACAT2. Both enzymes use long-chain fatty acyl-CoAs and sterols with 3-beta-OH, including cholesterol and various oxysterols as their substrates. ACAT1 is the major cholesterol storage enzyme in the brain.
# Biophys. Res. Comm. […] Here, the ACAT activity was monitored using the ACAT enzyme assay in vitro.
# human ACAT1 [4] = biological target: T2, human ACAT1 (Homo sapiens, UniProt P35610); settings: cited from earlier work
# T2 sequence (P35610 1-550): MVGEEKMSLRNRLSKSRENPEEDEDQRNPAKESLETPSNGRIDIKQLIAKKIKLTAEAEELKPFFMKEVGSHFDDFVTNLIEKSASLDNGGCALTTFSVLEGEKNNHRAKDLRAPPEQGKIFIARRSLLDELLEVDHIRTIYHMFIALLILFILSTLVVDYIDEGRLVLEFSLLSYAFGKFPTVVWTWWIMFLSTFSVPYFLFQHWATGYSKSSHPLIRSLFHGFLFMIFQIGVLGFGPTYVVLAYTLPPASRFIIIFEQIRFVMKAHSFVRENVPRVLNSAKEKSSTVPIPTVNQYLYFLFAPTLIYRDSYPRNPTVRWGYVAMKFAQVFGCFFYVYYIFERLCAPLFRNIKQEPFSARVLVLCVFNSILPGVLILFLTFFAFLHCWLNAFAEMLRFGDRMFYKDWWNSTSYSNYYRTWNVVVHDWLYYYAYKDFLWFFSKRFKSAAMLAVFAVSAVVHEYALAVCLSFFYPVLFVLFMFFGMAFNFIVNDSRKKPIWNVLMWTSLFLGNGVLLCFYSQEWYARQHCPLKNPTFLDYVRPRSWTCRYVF
# human ACAT1 [5] = biological target: T2, human ACAT1; assay: mixed liposome ACAT1 assay
# Description: In vitro Mixed Liposomal ACAT Activity Assay. […] Lysed cells were collected and aliquoted into pre-chilled tubes containing the liposomal mixture of taurocholate, phosphatidylcholine, and cholesterol. Tubes were vortexed and kept on ice for 5 minutes. Samples were then incubated in a 37° C. shaking water bath with ^3H-oleoyl CoA added for 10 minutes. The assay was stopped by adding CHCl3:MeOH (2:1). Lipids were extracted and analyzed by the same TLC method described herein.
# ABCA1 = ABCA1 protein content in human myelin debris-treated HMC3 cells; assay type: cell-based; settings: human myelin debris at 25 μg/mL cholesterol, 0.5 μM inhibitor, 24 hours
# Description: Afterward, cells were harvested for western blot analyses. Lysates of HEK293 cells and lysates of HMC3 cells treated with 10 μM LXR agonist T0901317 for 24 hours were respectively used as negative and positive controls for ABCA1 signals. […] Data are expressed as mean±SEM.
# (§1) Subsequently, myelin debris from human brains was prepared and it was observed that the cholesterol/protein ratio, as well as the protein composition between mouse myelin debris and human myelin debris, were very similar.
# IL-4Rα [6] = assay: IL-4Rα expression in HMC3 microglia (western blot); assay type: cell-based, human; settings: for IL-4Rα protein content: human myelin debris-treated HMC3 cells, 48 hours co-incubation
# Description: (§2) IL-4Rα expression was determined by convention methods. 25 μg/mL cholesterol equals 38 μg/mL total myelin debris protein. Data are expressed as mean±SEM. *P<0.05; **P<0.01.
# […] Protein was isolated and analyzed by western blot analysis. Vinculin was the loading control. […] Data are expressed as mean±SEM. *P<0.05; **P<0.01.
# as §1
# N9 microglial cells = assay: inflammatory responses to LPS in N9 microglial cells (qPCR, IκB-α western blot); assay type: cell-based, mouse; settings: 0.5 μM for 4 hours, then 10, 100 or 1000 ng/mL LPS
# Description: Cells were seeded at 1×10^5/well onto 12-well plates in RPMI-1640 with 10% bovine calf serum. […] Six hours later, mRNA was extracted, and qPCR was performed to monitor pro-inflammatory (FIG. 5A) or anti-inflammatory (FIG. 5B) gene expression. […] Thirty minutes later, proteins were extracted for western blot analysis for total IκB-α, and for phosphorylated IκB-α (p-IκB-α). *P<0.05; ** P<0.01.
# It has now been shown that, in microglia, genetic inactivation of Acat1 suppresses certain pro-inflammatory response genes (FIG. 4A and FIG. 4C, e.g., IL-1β, iNOS, MCP1, Cxc19, Cxc110 and IL-6) and induces certain anti-inflammatory response genes (FIG. 4B and FIG. 4D, e.g., YM1) in the hippocampus (FIG. 4A and FIG. 4B) and cortex (FIG. 4C and FIG. 4D).
# IL-4Rα [7] = assay: IL-4Rα expression in N9 microglia (immunoblot); assay type: cell-based, mouse
# Description: Cells were harvested for immunoblot analysis for IL-4Rα. Vinculin was the loading control. Data expressed as mean+/−SEM, * p<0.05, ** p<0.01.
# as §2
# In microglia, various cholesterol-rich agents including myelin debris and damaged cell membranes enter the cells. […] In addition, the effects of ACAT1 blockade were tested in N9 and the human microglia-like cell line HMC3, which both express normal TREM-2 receptors.
molecule,measurement,setting,value
CC(C)c1cccc(C(C)C)c1NC(=O)CC(=O)C(Cc1ccccc1)Cc1ccc(O)cc1 (centres unmarked) [Compound 1B],IC50,ACAT2 [1],1.5 µM
CC(C)c1cc(C(C)C)c(CC(=O)NS(=O)(=O)Oc2c(C(C)C)cccc2C(C)C)c(C(C)C)c1 [CI 1011],amyloidopathy / cognitive deficits in mouse model for AD,[2],reduce amyloidopathy
CCCC[C@H](C)[C@@H]1CC(=O)N[C@@H](Cc2ccccc2)C(=O)N[C@@H](C)C(=O)N[C@H](CC(C)C)C(=O)O1 [Beauveriolide I],IC50,ACAT2 [1],20 µM
CCCCCCCC(=O)Nc1ccccc1-c1ccccc1 [compound 1],IC50,ACAT2 [1],230 µM
COc1ccc([C@@H](O)[C@@H](C)Oc2ccc([C@H]3O[C@H](c4ccc(O[C@H](C)[C@H](O)c5ccc6c(c5)OCO6)c(OC)c4)[C@H](C)[C@H]3C)cc2OC)cc1OC [manassantin B],inhibition of hACAT-2,ACAT2 [3],32%
CCCCCCCCC(=O)Nc1cc(-c2ccccc2)nn1-c1ccccc1 [compound 14],IC50,ACAT2 [1],75 µM
CCOC(=O)OC(=O)OCC [diethyl pyrocarbonate],selectivity for ACAT1 over ACAT2,ACAT1,4 fold
same,IC50,ACAT2 [1],170 µM
same,IC50,human ACAT1 [4],44 µM
CCCCCCCC(=O)Nc1cc(-c2ccccc2)nn1-c1ccccc1 [compound 13],IC50,ACAT2 [1],53 µM
CCCCCCCCCCCCS(=O)(=O)[C@](F)(C(=O)Nc1cc(C)c(O)c(C)c1C)c1ccccc1 [F26],EC50,human ACAT1 [5],0.0058 µM
same,potency relative to F12511 as ACAT1 inhibitor,human ACAT1 [5]; ratio of EC50 values,~7 times
"CCCCCCCC[C@H](SCCCCCC)C(=O)Nc1c(SC)cc(C)nc1SC [CP113,818]",amyloidopathy / cognitive deficits in mouse model for AD,[2],reduce amyloidopathy and rescue cognitive deficits
CCCCCCCCC(=O)Nc1ccccc1-c1ccccc1 [compound 2],IC50,ACAT2 [1],414 µM
Saucerneol B,IC50,ACAT2 [1],124 µM
CC(C)c1cccc(C(C)C)c1NC(=O)CC(=O)C(Cc1ccccc1)Cc1ccc(OC(=O)CCCCCCN2CCCCCC2=O)cc1 (centres unmarked) [Compound 1C],IC50,ACAT2 [1],0.53 µM
CCCCCCCCCCCCS[C@H](C(=O)Nc1cc(C)c(O)c(C)c1C)c1ccccc1 [F12511],IC50,ACAT2 [1],0.11 µM
same,ABCA1 protein content,ABCA1,increased significantly
same,IL-4Rα protein content,IL-4Rα [6],IL-4Rα protein content increases
CSc1cc(C)nc(SC)c1NC(=O)CN1CCN(CCSc2nc3ccccc3[nH]2)CC1 [K-604],ABCA1 protein content,ABCA1,increased significantly
same,inflammatory responses to LPS,N9 microglial cells,attenuates inflammatory responses to LPS
same,IL-4Rα protein content,IL-4Rα [6],IL-4Rα protein content increases
same,IL-4Rα expression,"IL-4Rα [6]; mouse myelin debris-treated HMC3 cells, 21 hours",upregulates IL-4Rα expression
same,IL-4Rα expression,"IL-4Rα [7]; N9 cells, 0.5 μM for 4 or 12 hours",increases expression of the receptor IL-4Rα
same,IL-4Rα expression,"IL-4Rα [7]; mouse myelin debris-treated N9 cells, 21 hours",upregulates IL-4Rα expression
CCCCCCCCCNc1cc(-c2ccccc2)nn1-c1ccccc1 [compound 16],IC50,ACAT2 [1],97 µM
